Results as given in patent US20250389714A1, “PHARMACEUTICAL COMPOSITION FOR TREATING DISEASES RELATED TO TAUOPATHY” (SEOUL NATIONAL UNIVERSITY R&DB FOUNDATION, priority 2021, published 2025).
Entries after “also recorded” stand apart in the source; their conditions may differ. Values belong to the molecule of their own block, whether it stands above or below them.

Assays:
[1] = test system: RAGE-expressing SH-SY5Y cells; assay: Tau infection (intracellular DyLight 488-tau oligomers) in RAGE-expressing SH-SY5Y cells; type: cell-based, human; conditions: increasing concentrations of antagonist, 4 hours, 500 nM DyLight 488-tau oligomers
Experimental: (right) for 4 hours in the presence of 500 nM DyLight 488-tau or 125 nM FITC-Aβ42 oligomers. Fluorescence images were acquired, and intracellular DyLight 488 and FITC intensities were measured. The data were presented as mean±SEM (n=4).

[2] = test system: rTg4510 mice; assay: Behavioral tests (Y-maze, novel object recognition, passive avoidance) in rTg4510 mice; type: in vivo, mouse; conditions: 1 mg/kg/day intraperitoneally, daily for 2.5 months from 2 months of age; tests at 4.5 months
[3] = test system: primary cortical neurons or hippocampal neurons; assay: Tau infection assay in primary cultured neurons; conditions: 500 nM DyLight 488-tau oligomers, 24 hours
[4] = molecular target: T1, RAGE (Homo sapiens, UniProt Q15109); assay: Cell binding assay and calculation of dissociation constant (Kd) for RAGE binding; conditions: monomer equivalents of total Aβ42 or total tau; biotin-labeled oligomers, RAGE-overexpressing SH-SY5Y cells, 2 hours
T1 construct: RFP-tagged RAGE full-length (FL) or cytoplasmic domain deletion mutants (ΔCyto); expressed in transfected cells; host or cells: SH-SY5Y human neuroblastoma cells
T1 sequence (Q15109 23-404): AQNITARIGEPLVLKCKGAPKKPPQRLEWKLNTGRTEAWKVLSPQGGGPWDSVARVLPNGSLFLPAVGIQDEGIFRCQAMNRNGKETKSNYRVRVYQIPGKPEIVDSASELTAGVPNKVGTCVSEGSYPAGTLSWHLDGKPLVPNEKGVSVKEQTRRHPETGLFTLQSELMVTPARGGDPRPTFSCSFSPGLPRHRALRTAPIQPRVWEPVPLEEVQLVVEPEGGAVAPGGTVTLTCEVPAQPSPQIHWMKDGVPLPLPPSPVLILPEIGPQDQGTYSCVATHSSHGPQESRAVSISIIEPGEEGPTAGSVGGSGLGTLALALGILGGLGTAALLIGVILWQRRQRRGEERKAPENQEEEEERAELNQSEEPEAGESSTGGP
Experimental: FIG. 2c is a graph showing the results of analyzing RAGE binding affinities of tau oligomers (oTau) and Aβ42 oligomers (oAβ42). RAGE-overexpressing SH-SY5Y cells were treated with biotin-tau or Aβ42 oligomers for 2 hours, and the cell-bound biotin signal intensities in FIG. 12a were measured. The data were presented as mean±SEM (n=3-5), and the Kd of binding values were obtained from nonlinear regression analysis of saturated binding.
The purified tau monomers of the present invention were biotinylated using the Ez-Link Sulfo-NHS-LC-Biotinylation kit (Thermo Scientific) and then fibrillated as described above to form oligomers and fibrils. SH-SY5Y cells were transfected with RAGE cDNA for 24 hours and incubated with biotin-tau protein for 2 hours. Primary cortical neurons from WT and Rage KO mice (DIV 7) were then incubated with various concentrations of biotin-tau oligomers for 24 hours to estimate the Kd value for tau binding to RAGE. Cells were washed with Tris-buffered saline (TBS) and fixed with 4% paraformaldehyde for 20 min. The cells were then blocked with 10% FBS and 0.1% Triton X-100 in TBS for 1 hour and incubated with streptavidin-alkaline phosphatase conjugate (1:2000, Roche) at 4° C. for 16 hours. After washing with TBS, bound biotin-tau was visualized for 10 min using the […] liquid substrate system (Sigma-Aldrich). Images were acquired using INCell Analyzer 2000, and cell-bound biotin signals were measured using Image J. Kd values estimated for RAGE-binding were obtained from nonlinear regression analysis of saturated binding using Prism (GraphPad Software).

[5] = molecular target: human RAGE (receptor for advanced glycation end products), full-length, overexpressed in SH-SY5Y cells (human) (UniProt Q15109); assay: cell-based or functional assay
human RAGE (receptor for advanced glycation end products), full-length, overexpressed in SH-SY5Y cells (human), sequence (Q15109 23-404): as above

[6] = test system: RAGE-overexpressing SH-SY5Y cells; assay: Competition of tau oligomers and Aβ42 oligomers for uptake in RAGE-overexpressing SH-SY5Y cells; type: cell-based, human; conditions: increasing concentrations of DyLight 594-tau oligomers with 125 nM FITC-Aβ42 oligomers, 2 hours
Experimental: FIG. 12b is a graph showing the results of analyzing […] and FITC intensities in RAGE-overexpressing SH-SY5Y cells. The cells were treated with increasing concentrations of DyLight 594-tau oligomers (red) in the presence of 125 nM FITC-Aβ42 oligomers (green) for 2 hours. Fluorescence images were acquired, and intracellular DyLight 594 and FITC intensities were measured. The data were presented as mean±SEM (n=3).

[7] = molecular target: T2, high molecular weight (HMW, 10-20 units) tau oligomers of 6xHis tagged human 0N4R tau (human, UniProt P10636-6 1-383, biotinylated or labelled with DyLight 488, depending on the assay; sites not stated); assay: cell binding assay: biotin-labelled HMW tau oligomers for 24 h on primary cortical neurons, streptavidin-alkaline phosphatase, BCIP/NBT; nonlinear regression of saturation binding; dashed ΔRage curve, whose points equal WT minus Rage KO; concentration as tau monomer equivalent
T2 construct: also called HMW tau oligomers; not shown: 6xHis tag from the pET-His vector
T2 sequence (P10636 other isoform, or with tags, fused parts or gaps): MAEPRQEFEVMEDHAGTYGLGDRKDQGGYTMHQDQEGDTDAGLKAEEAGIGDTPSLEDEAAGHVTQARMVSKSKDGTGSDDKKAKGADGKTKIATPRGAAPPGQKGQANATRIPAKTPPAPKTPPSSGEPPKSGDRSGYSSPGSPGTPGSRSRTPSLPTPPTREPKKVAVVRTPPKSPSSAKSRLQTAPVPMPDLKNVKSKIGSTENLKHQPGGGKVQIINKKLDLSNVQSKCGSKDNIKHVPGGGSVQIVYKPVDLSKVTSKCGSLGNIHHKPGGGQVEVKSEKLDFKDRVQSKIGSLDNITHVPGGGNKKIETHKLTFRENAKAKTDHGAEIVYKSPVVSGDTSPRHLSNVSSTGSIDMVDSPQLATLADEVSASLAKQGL

[8] = molecular target: T3, low molecular weight (LMW, 2-4 units) tau oligomers of 6xHis tagged human 0N4R tau (human, UniProt P10636-6 1-383, biotinylated or labelled with DyLight 488, depending on the assay; sites not stated); assay: cell binding assay: biotin-labelled LMW tau oligomers for 24 h on primary cortical neurons, streptavidin-alkaline phosphatase, BCIP/NBT; nonlinear regression of saturation binding; dashed ΔRage curve, whose points equal WT minus Rage KO; concentration as tau monomer equivalent
T3 construct: also called LMW tau oligomers; not shown: 6xHis tag from the pET-His vector
T3 sequence (P10636 other isoform, or with tags, fused parts or gaps): as above

Molecule: O=C(c1ccc(Cl)cc1)N(Cc1ccccc1)C1CCCCC1 [FPS-ZM1]
tau infection into RAGE-expressing SH-SY5Y cells [1]: inhibited tau infection
cognitive function (spatial and working memory) of rTg4510 mice [2]: significantly alleviated cognitive impairment; also recorded: significant retention of spatial and working memory; also recorded: ameliorated the behavioral impairment
tau infection into neurons ([3]; WT cortical neurons, 1 μM antagonist): inhibited tau infection; also recorded: reduces neuronal tau infection

Kd [4]: 17 nM
Molecule: Aβ42 oligomers: oligomers prepared from synthetic biotin- or FITC-labeled Aβ42 peptide (rPeptide)

Intracellular DyLight 488 Intensities (AU) [5]: 9.55 AU
Molecule: DyLight 488-tau aggregates (His-tagged human tau aggregated with heparin, used in the cDNA screen) (from UniProt P10636 1-383) (ligand)

Kd [4]: 51 nM
Molecule: HMW tau oligomers: high molecular weight tau oligomers (10-20 units) of recombinant human 0N4R tau

Kd [4]: 205 nM
Molecule: LMW tau oligomers: low molecular weight tau oligomers (2-4 units) of recombinant human 0N4R tau

Molecule: heparin
tau oligomer transfection into Rage KO neurons ([3]; Rage KO neurons, 15 U/ml heparin): efficiently blocked
neuronal uptake of tau oligomers into WT neurons ([3]; WT neurons, 15 U/ml heparin): reduced neuronal uptake of tau oligomers

Molecule: tau oligomers: oligomers of recombinant 6×His tagged human 0N4R tau formed with heparin
intracellular transfection of Aβ42 oligomers [6]: efficiently reduced the intracellular transfection of Aβ42 oligomers

Kd [7]: 25 nM
Kd [8]: 43.5 nM
B1: mouse RAGE, endogenous, on primary cultured WT mouse neurons (against Rage KO neurons) (receptor, UniProt Q62151 23-402, looked up)
chain: GQNITARIGEPLVLSCKGAPKKPPQQLEWKLNTGRTEAWKVLSPQGGPWDSVARILPNGSLLLPATGIVDEGTFRCRATNRRGKEVKSNYRVRVYQIPGKPEIVDPASELTASVPNKVGTCVSEGSYPAGTLSWHLDGKLLIPDGKETLVKEETRRHPETGLFTLRSELTVIPTQGGTHPTFSCSFSLGLPRRRPLNTAPIQLRVREPGPPEGIQLLVEPEGGIVAPGGTVTLTCAISAQPPPQVHWIKDGAPLPLAPSPVLLLPEVGHEDEGTYSCVATHPSHGPQESPPVSIRVTETGDEGPAEGSVGESGLGTLALALGILGGLGVVALLVGAILWRKRQPRREERKAPESQEDEEERAELNQSEEAEMPENGAGGP
notes: whole, on cells
